Experimental data from article PMC8571316 (Scientific Reports, 2021).
Peptide text beside a SMILES is read from it. * marks the point of attachment. Biotin = O=C1N[C@H]2[C@H](CS[C@H]2CCCCC(=O)*)N1; PEG4 = NCCOCCOCCOCCOCCC(=O)O

System: Influenza HA
Format: binding

| SMILES | cross-reactivity (selectivity of binding, in words) |
| --- | --- |
| CC[C@H](C)[C@H](NC(=O)[C@@H](NC(=O)[C@H](Cc1ccc(O)cc1)NC(=O)[C@H](Cc1ccccc1)NC(=O)[C@H](Cc1ccc(O)cc1)NC(=O)[C@@H](NC(=O)[C@H](CCC(=O)O)NC(=O)[C@H](CCSC)NC(=O)[C@H](Cc1c[nH]c2ccccc12)NC(=O)[C@H](Cc1c[nH]cn1)NC(=O)[C@H](CO)NC(=O)[C@H](Cc1ccccc1)NC(=O)[C@H](CCSC)NC(=O)[C@H](CC(=O)O)NC(=O)[C@H](Cc1c[nH]c2ccccc12)NC(=O)[C@H](CC(=O)O)NC(=O)[C@@H](NC(=O)[C@H](CCCCN)NC(=O)CCOCCOCCOCCOCCNC(=O)CCCC[C@@H]1SC[C@@H]2NC(=O)N[C@@H]21)[C@@H](C)O)[C@@H](C)CC)C(C)C)C(=O)O [Peptide P180] ({Biotin-PEG4}-KTDWDMFSHWMEIYFYVI-OH; C-terminus assumed) | some level of cross-reactivity |
| CC(C)C[C@H](NC(=O)[C@H](CC(=O)O)NC(=O)[C@H](CCC(=O)O)NC(=O)[C@H](Cc1c[nH]c2ccccc12)NC(=O)[C@H](CCC(=O)O)NC(=O)[C@H](CC(C)C)NC(=O)[C@H](CC(N)=O)NC(=O)[C@H](Cc1ccccc1)NC(=O)[C@@H](NC(=O)[C@H](Cc1ccccc1)NC(=O)[C@H](CC(C)C)NC(=O)[C@H](Cc1ccccc1)NC(=O)[C@H](CC(C)C)NC(=O)[C@@H](NC(=O)[C@H](Cc1c[nH]c2ccccc12)NC(=O)[C@H](CC(=O)O)NC(=O)CCOCCOCCOCCOCCNC(=O)CCCC[C@@H]1SC[C@@H]2NC(=O)N[C@@H]21)[C@@H](C)O)C(C)C)C(=O)N[C@@H](Cc1ccccc1)C(=O)N[C@@H](Cc1ccc(O)cc1)C(=O)O [Peptide P89] ({Biotin-PEG4}-DWTLFLFVFNLEWEDLFY-OH; C-terminus assumed) | some level of cross-reactivity |
| CC[C@H](C)[C@H](NC(=O)[C@H](CC(=O)O)NC(=O)[C@H](Cc1ccccc1)NC(=O)[C@H](CC(N)=O)NC(=O)CCOCCOCCOCCOCCNC(=O)CCCC[C@@H]1SC[C@@H]2NC(=O)N[C@@H]21)C(=O)N[C@@H](CC(C)C)C(=O)N[C@@H](CC(C)C)C(=O)N[C@@H](Cc1ccccc1)C(=O)N[C@H](C(=O)N[C@@H](Cc1ccccc1)C(=O)N[C@@H](CC(N)=O)C(=O)N[C@@H](Cc1ccc(O)cc1)C(=O)N[C@@H](CCC(=O)O)C(=O)N[C@@H](CCSC)C(=O)N[C@@H](CCC(=O)O)C(=O)N[C@@H](CC(=O)O)C(=O)N[C@@H](CCCCN)C(=O)N[C@@H](Cc1ccccc1)C(=O)N[C@@H](Cc1ccc(O)cc1)C(=O)O)C(C)C [Peptide P168] ({Biotin-PEG4}-NFDILLFVFNYEMEDKFY-OH; C-terminus assumed) | some level of cross-reactivity |
| CC[C@H](C)[C@H](NC(=O)[C@H](CCC(=O)O)NC(=O)[C@H](Cc1ccc(O)cc1)NC(=O)[C@H](Cc1ccc(O)cc1)NC(=O)[C@H](CCSC)NC(=O)[C@H](Cc1c[nH]cn1)NC(=O)[C@H](CCSC)NC(=O)[C@H](Cc1c[nH]c2ccccc12)NC(=O)[C@H](CCCCN)NC(=O)[C@H](CC(=O)O)NC(=O)[C@H](Cc1c[nH]c2ccccc12)NC(=O)[C@H](CCC(=O)O)NC(=O)[C@@H](NC(=O)[C@H](CCCCN)NC(=O)CCOCCOCCOCCOCCNC(=O)CCCC[C@@H]1SC[C@@H]2NC(=O)N[C@@H]21)[C@@H](C)O)C(=O)N[C@@H](Cc1ccccc1)C(=O)N[C@@H](Cc1ccc(O)cc1)C(=O)N[C@@H](CCC(=O)O)C(=O)N[C@@H](CC(=O)O)C(=O)O [Peptide P100] ({Biotin-PEG4}-KTEWDKWMHMYYEIFYED-OH; C-terminus assumed) | some level of cross-reactivity |
